Assay results published in patent US20090291938A1 (TAKEDA PHARMACEUTICAL COMPANY LIMITED, priority 2007, published 2009).

test system: HT29 human colorectal adenocarcinoma cell line; test: cell proliferation assay (Cell Titer-Glo luminescent cell viability assay); assay type: cell-based; settings: HT-29, 72 h, read-out: pIC50 (converted)
How it was run: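 Cells grown in DMEM with 10% FBS and exposed to compounds for 72 h. Viability read by CellTiter-Glo luminescence, expressed as percentage of DMSO-treated cells.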

SMILES | IC50 [nM]
COc1cc(C(=O)O)ccc1Nc1ncc2c(n1)N(C1CCCC1)CC(C)(C)C(=O)N2C [Compound 85, 4-(9-Cyclopentyl-5,7,7-trimethyl-6-oxo-6,7,8,9-tetrahydro-5H-pyrimido[4,5-b][1,4]diazepin-2-ylamino)-3-methoxybenzoic Acid] | 3.16 to 10
COc1cc(C(=O)NC2CCN(C)CC2)ccc1Nc1ncc2c(n1)N(C1CCCCC1)CC(C)(C)C(=O)N2C [Compound 109, 4-(9-cyclohexyl-5,7,7-trimethyl-6-oxo-6,7,8,9-tetrahydro-5H-pyrimido[4,5-b][1,4]diazepin-2-ylamino)-3-methoxy-N-(1-methylpiperidin-4-yl)benzamide] | 1 to 2.51

same assay, conditions: HT-29, cell proliferative assay, HT29 cells, 72 hr treatment, values given as ranges, read-out: pIC50 (converted)

SMILES | IC50 [nM]
COc1cc(C(=O)NCCN2CCCC2)ccc1Nc1ncc2c(n1)N(C1CCCC1)CC(C)(C)C(=O)N2C [Compound 93, 4-(9-cyclopentyl-5,7,7-trimethyl-6-oxo-6,7,8,9-tetrahydro-5H-pyrimido[4,5-b][1,4]diazepin-2-ylamino)-3-methoxy-N-(2-(pyrrolidin-1-yl)ethyl)benzamide] | 3.16 to 10
COc1cc(C(=O)NC[C@@H]2CCCNC2)ccc1Nc1ncc2c(n1)N(C1CCCC1)CCC(=O)N2C [Compound 63, (R)-4-(9-cyclopentyl-5-methyl-6-oxo-6,7,8,9-tetrahydro-5H-pyrimido[4,5-b][1,4]diazepin-2-ylamino)-3-methoxy-N-(piperidin-3-ylmethyl)benzamide] | > 10
CCN1CCC(NC(=O)c2ccc(Nc3ncc4c(n3)N(C3CCCC3)CC(C)(C)C(=O)N4C)c(OC)c2)CC1 [Compound 87, 4-(9-cyclopentyl-5,7,7-trimethyl-6-oxo-6,7,8,9-tetrahydro-5H-pyrimido[4,5-b][1,4]diazepin-2-ylamino)-N-(1-ethylpiperidin-4-yl)-3-methoxybenzamide] | 1 to 2.51
COc1cc(C(=O)NCC2CCNCC2)ccc1Nc1ncc2c(n1)N(C1CCCC1)CCC(=O)N2C [Compound 60, 4-(9-cyclopentyl-5-methyl-6-oxo-6,7,8,9-tetrahydro-5H-pyrimido[4,5-b][1,4]diazepin-2-ylamino)-3-methoxy-N-(piperidin-4-ylmethyl)benzamide] | > 10
COc1cc(C(=O)NCc2ccccn2)ccc1Nc1ncc2c(n1)N(C1CCCC1)CCC(=O)N2C [Compound 69, 4-(9-cyclopentyl-5-methyl-6-oxo-6,7,8,9-tetrahydro-5H-pyrimido[4,5-b][1,4]diazepin-2-ylamino)-3-methoxy-N-(pyridin-2-ylmethyl)benzamide] | 3.16 to 10
COc1cc(C(=O)NC2CCN(C(C)C)CC2)ccc1Nc1ncc2c(n1)N(C1CCCC1)CCC(=O)N2C [Compound 77, 4-(9-cyclopentyl-5-methyl-6-oxo-6,7,8,9-tetrahydro-5H-pyrimido[4,5-b][1,4]diazepin-2-ylamino)-N-(1-isopropylpiperidin-4-yl)-3-methoxybenzamide] | > 10
COc1cc(C(=O)N[C@H]2CCCN(C)C2)ccc1Nc1ncc2c(n1)N(C1CCCC1)CCC(=O)N2C [Compound 54, (S)-4-(9-cyclopentyl-5-methyl-6-oxo-6,7,8,9-tetrahydro-5H-pyrimido[4,5-b][1,4]diazepin-2-ylamino)-3-methoxy-N-(1-methylpiperidin-3-yl)benzamide] | 3.16 to 10
COc1cc(C(=O)NC2CCN(C(C)=O)CC2)ccc1Nc1ncc2c(n1)N(C1CCCC1)CCC(=O)N2C [Compound 39, N-(1-acetylpiperidin-4-yl)-4-(9-cyclopentyl-5-methyl-6-oxo-6,7,8,9-tetrahydro-5H-pyrimido[4,5-b][1,4]diazepin-2-ylamino)-3-methoxybenzamide] | 1 to 2.51
CNC(=O)c1ccc(Nc2ncc3c(n2)N(C2CCCC2)CCC(=O)N3C)c(OC)c1 [Compound 10, 4-[(9-cyclopentyl-5-methyl-6-oxo-6,7,8,9-tetrahydro-5H-pyrimido[4,5-b][1,4]diazepin-2-yl)amino]-3-methoxy-N-methylbenzamide] | 3.16 to 10
COc1cc(C(=O)NCCN2CCNCC2)ccc1Nc1ncc2c(n1)N(C1CCCC1)CCC(=O)N2C [Compound 55, 4-(9-cyclopentyl-5-methyl-6-oxo-6,7,8,9-tetrahydro-5H-pyrimido[4,5-b][1,4]diazepin-2-ylamino)-3-methoxy-N-(2-(piperazin-1-yl)ethyl)benzamide] | > 10

The next lines start with the values.

IC50 [nM] | SMILES
> 10 | C=CCC1CN(C2CCCCC2)c2nc(Nc3ccc(C(=O)N[C@H]4CCCNC4)cc3OC)ncc2N(C)C1=O (stereo partly drawn) [Compound 192, 4-(7-allyl-9-cyclohexyl-5-methyl-6-oxo-6,7,8,9-tetrahydro-5H-pyrimido[4,5-b][1,4]diazepin-2-ylamino)-3-methoxy-N-((S)-piperidin-3-yl)benzamide]
1 to 2.51 | COc1cc(C(=O)NC2CN(C)C2)ccc1Nc1ncc2c(n1)N(C1CCCCC1)CC1(CC1)C(=O)N2C [Compound 173, 4-(9′-cyclohexyl-5′-methyl-6′-oxo-5′,6′,8′,9′-tetrahydrospiro[cyclopropane-1,7′-pyrimido[4,5-b][1,4]diazepine]-2′-ylamino)-3-methoxy-N-(1-methylazetidin-3-yl)benzamide]
< 1 | COc1cc(C(=O)NN2CCOCC2)ccc1Nc1ncc2c(n1)N(C1CCCC1)CC(C)(C)C(=O)N2C [Compound 104, 4-(9-cyclopentyl-5,7,7-trimethyl-6-oxo-6,7,8,9-tetrahydro-5H-pyrimido[4,5-b][1,4]diazepin-2-ylamino)-3-methoxy-N-morpholinobenzamide]
> 10 | COc1cc(C(=O)NC2CN(C)C2)ccc1Nc1ncc2c(n1)N(C1CCCCC1)CC(C1CC1)C(=O)N2C (stereo not drawn) [Compound 157, 4-(9-cyclohexyl-7-cyclopropyl-5-methyl-6-oxo-6,7,8,9-tetrahydro-5H-pyrimido[4,5-b][1,4]diazepin-2-ylamino)-3-methoxy-N-(1-methylazetidin-3-yl)benzamide]
< 1 | COc1cc(C(=O)N[C@H]2CCCN(C)C2)ccc1Nc1ncc2c(n1)N(C1CCCCC1)CC1(CC1)C(=O)N2C [Compound 171, (S)-4-(9′-cyclohexyl-5′-methyl-6′-oxo-5′,6′,8′,9′-tetrahydrospiro[cyclopropane-1,7′-pyrimido[4,5-b][1,4]diazepine]-2′-ylamino)-3-methoxy-N-(1-methylpiperidin-3-yl)-benzamide]
1 to 2.51 | COc1cc(C(=O)N[C@H]2CCCNC2)ccc1Nc1ncc2c(n1)N(C1CCCC1)CC(C)(C)C(=O)N2C [Compound 101, (S)-4-(9-cyclopentyl-5,7,7-trimethyl-6-oxo-6,7,8,9-tetrahydro-5H-pyrimido[4,5-b][1,4]diazepin-2-ylamino)-3-methoxy-N-(piperidin-3-yl)benzamide]
3.16 to 10 | CCC#CCC1CN(C2CCCC2)c2nc(Nc3ccc(C(=O)NC4CCN(C)CC4)cc3OC)ncc2N(C)C1=O (stereo not drawn) [Compound 219, 4-(9-cyclopentyl-5-methyl-6-oxo-7-(pent-2-ynyl)-6,7,8,9-tetrahydro-5H-pyrimido[4,5-b][1,4]diazepin-2-ylamino)-3-methoxy-N-(1-methylpiperidin-4-yl)benzamide]
1 to 2.51 | COc1cc(C(=O)N[C@@H]2CCCN(C)C2)ccc1Nc1ncc2c(n1)N(C1CCCC1)CC(C)(C)C(=O)N2C [Compound 98, (R)-4-(9-cyclopentyl-5,7,7-trimethyl-6-oxo-6,7,8,9-tetrahydro-5H-pyrimido[4,5-b][1,4]diazepin-2-ylamino)-3-methoxy-N-(1-methylpiperidin-3-yl)benzamide]
1 to 2.51 | C=CC[C@H]1CN(C2CCCC2)c2nc(Nc3ccc(C(=O)N[C@@H]4CCNC4)cc3OC)ncc2N(C)C1=O [Compound 202, 4-((S)-7-allyl-9-cyclopentyl-5-methyl-6-oxo-6,7,8,9-tetrahydro-5H-pyrimido[4,5-b][1,4]diazepin-2-ylamino)-3-methoxy-N-((R)-pyrrolidin-3-yl)benzamide]
1 to 2.51 | C=CCC1CN(C2CCCCC2)c2nc(Nc3ccc(C(=O)NN4CCN(C)CC4)cc3OC)ncc2N(C)C1=O (stereo not drawn) [Compound 226, 4-(7-allyl-9-cyclohexyl-5-methyl-6-oxo-6,7,8,9-tetrahydro-5H-pyrimido[4,5-b][1,4]diazepin-2-ylamino)-3-methoxy-N-(4-methylpiperazin-1-yl)benzamide]
> 10 | C=CCC1CN(C2CCCCC2)c2nc(Nc3ccc(C(=O)N[C@@H]4CCN(C)C4)cc3OC)ncc2N(C)C1=O (stereo partly drawn) [Compound 230, 4-(7-allyl-9-cyclohexyl-5-methyl-6-oxo-6,7,8,9-tetrahydro-5H-pyrimido[4,5-b][1,4]diazepin-2-ylamino)-3-methoxy-N-((R)-1-methylpyrrolidin-3-yl)benzamide]
< 1 | C=C[C@]1(C)CN(C2CCCC2)c2nc(Nc3ccc(C(=O)NN4CCN(C)CC4)cc3OC)ncc2N(C)C1=O [Compound 243, (R)-4-(9-cyclopentyl-5,7-dimethyl-6-oxo-7-vinyl-6,7,8,9-tetrahydro-5H-pyrimido[4,5-b][1,4]diazepin-2-ylamino)-3-methoxy-N-(4-methylpiperazin-1-yl)benzamide]
1 to 2.51 | COc1cc(C(=O)NC2CCOCC2)ccc1Nc1ncc2c(n1)N(C1CCCC1)CC(C)(C)C(=O)N2C [Compound 94, 4-(9-cyclopentyl-5,7,7-trimethyl-6-oxo-6,7,8,9-tetrahydro-5H-pyrimido[4,5-b][1,4]diazepin-2-ylamino)-3-methoxy-N-(tetrahydro-2H-pyran-4-yl)benzamide]
1 to 2.51 | COc1cc(C(=O)N[C@H]2CCCNC2)ccc1Nc1ncc2c(n1)N(C1CCCC1)CC1(CCC1)C(=O)N2C [Compound 182, (S)-4-(9′-cyclopentyl-5′-methyl-6′-oxo-5′,6′,8′,9′-tetrahydrospiro[cyclobutane-1,7′-pyrimido[4,5-b][1,4]diazepine]-2′-ylamino)-3-methoxy-N-(piperidin-3-yl)benzamide]
< 1 | CCN1CCC(NC(=O)c2ccc(Nc3ncc4c(n3)N(C3CCCCC3)CC(C)(C)C(=O)N4C)c(OC)c2)CC1 [Compound 113, 4-(9-cyclohexyl-5,7,7-trimethyl-6-oxo-6,7,8,9-tetrahydro-5H-pyrimido[4,5-b][1,4]diazepin-2-ylamino)-N-(1-ethylpiperidin-4-yl)-3-methoxybenzamide]
